According to patent US20120028995A1, “NOVEL COMPOUNDS FOR MEDICAL USE AS PEPTIDASE EFFECTORS” (IMTM GMBH, priority 2010, published 2012):
Like-named read-outs stand apart in the source and are kept apart here.

How the values were obtained:
[1] = biological target: T1, purified, recombinant human DPIV (Homo sapiens, UniProt P27487); experiment: Inhibition of enzymatic activity of DPIV (fluorogenic substrate hydrolysis); type: biochemical; details: highest test item concentration 25 μM
T1 construct: made in house; host or cells: Sf9 insect cells
T1 sequence (P27487 whole entry): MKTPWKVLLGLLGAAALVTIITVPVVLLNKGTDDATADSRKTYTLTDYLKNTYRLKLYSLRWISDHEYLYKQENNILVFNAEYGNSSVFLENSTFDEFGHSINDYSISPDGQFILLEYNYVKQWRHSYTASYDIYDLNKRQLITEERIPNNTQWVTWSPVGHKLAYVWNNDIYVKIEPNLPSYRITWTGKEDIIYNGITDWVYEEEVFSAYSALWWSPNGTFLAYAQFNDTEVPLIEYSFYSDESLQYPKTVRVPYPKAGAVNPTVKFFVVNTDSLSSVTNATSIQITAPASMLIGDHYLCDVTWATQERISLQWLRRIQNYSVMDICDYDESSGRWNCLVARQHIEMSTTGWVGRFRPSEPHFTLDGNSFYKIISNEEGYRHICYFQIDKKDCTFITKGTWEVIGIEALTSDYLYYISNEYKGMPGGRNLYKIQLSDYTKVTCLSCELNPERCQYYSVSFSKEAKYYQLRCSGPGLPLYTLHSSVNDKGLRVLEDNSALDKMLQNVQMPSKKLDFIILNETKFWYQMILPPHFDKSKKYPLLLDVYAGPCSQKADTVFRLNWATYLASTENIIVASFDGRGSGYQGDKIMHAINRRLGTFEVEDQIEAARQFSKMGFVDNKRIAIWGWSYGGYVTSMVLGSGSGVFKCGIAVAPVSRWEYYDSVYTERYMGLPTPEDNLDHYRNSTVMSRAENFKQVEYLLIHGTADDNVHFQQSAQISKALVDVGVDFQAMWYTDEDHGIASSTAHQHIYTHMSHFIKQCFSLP
Protocol: (§1) The inhibition of the enzymatic activity of DPIV and related enzymes was measured by using purified, recombinant human DPIV (purified from transfected Sf9 cells, final enzyme concentration approx. 1 nM) as well as purified, recombinant DP8 and DP9 (purchased from Biomol). The assay was performed in 0.05M TRIS/HCl puffer pH 7.5, supplemented with 0.05% Triton (v/v), 0.05% BSA (w/v), 2 mM MgCl2.
(§2) The enzymatic activity of DPIV was assessed by the hydrolysis of the fluorogenic substrates H-Gly-Pro-4-amino-7-methyl coumarine (abbreviation of fluorogenic group AMC; purchased from Bachem) or (Ala-Pro)2-Rhodamine 110 (abbreviation R110). The final substrate concentrations were 50 μM or 1 μM, respectively.
(§3) The assay was performed in white microtitre plates for fluorescence measurements. The test items, substrate and enzyme were diluted in assay buffer. The highest test item concentration used was 25 μM. For the calculation of IC50 values, at least 16 log 2-dilutions of each test item were analyzed. As controls, the DPIV activity in the absence of test items as well as the spontaneous hydrolysis of the substrate was determined.
(§4) The release of the fluorescent hydrolysis product AMC was measured at an excitation wavelength of 380 nm and an emission wavelength of 460 nm by using a microtitre fluorescence reader immediately after substrate addition as well as after 30, 60 and 120 min. The hydrolysis of the substrate (Ala-Pro)2-Rhodamine 110 was determined at an exitation wavelength of 488 nm and emission wavelength of 530 nm.

[2] = system: SZ95 cells; experiment: Inhibition of DNA synthesis and proliferation of immortalized human sebocytes SZ95; type: cell-based; details: EGF-stimulated SZ95 sebocytes, tritium thymidine incorporation, read-out: Supp. DNA Synt. SZ95 IC50
Protocol: The immortalized human sebocyte line SZ95 was provided by Prof. C Zouboulis [C C Zouboulis, H Seltmann, H Neitzel, C E Orfanos, Establishment and characterization of an immortalized human sebaceous gland cell line (SZ95). J. Invest. Dermatol. 113(6):1011-1020 (1999), the entire disclosure of which is incorporated by reference herein]. These adherent growing cells were cultured in serum-free Sebomed Complete (Biochrom). Recombinant EGF was added in order to stimulate DNA synthesis and proliferation of the SZ95 cells. Test items were added in concentrations from 0.1 up to 100 μM.
The DNA synthesis of proliferating cells was detected by incorporation of radiolabelled tritium thymidine (3HT) and counting at a beta counter. Based on these raw data the relative proliferation response in relation to cells cultured in the absence of test compound (100% control) was calculated. IC50 values of proliferation suppression were assessed by computer-assisted graphical evaluation.

[3] = system: T lymphocytes (T cells); experiment: Suppression of DNA synthesis of PHA-stimulated T lymphocytes; type: cell-based; details: tritium thymidine incorporation, read-out: Supp. DNA Synt. T-cell IC50
Protocol: Peripheral blood mononuclear cells (PBMC) from healthy human volunteers were freshly isolated by density gradient centrifugation. T lymphocytes (T cells) were isolated from PBMC fractions via nylon wool adherence. Both cell populations were cultured in serum free lymphocyte medium (AIMV medium, Invitrogen) and stimulated by addition of 1 μg/ml Phytohemagglutinine for 48 hours in 96 well flat-bottom microtiter plates. Test compounds were added at concentration ranges from 0.1 up to 250 μM over the total assay period.
DNA synthesis of proliferating PBMC was assessed by incorporation of nucleotide analogue bromdesoxyuridine (BrdU) and subsequent detection of BrdU by ELISA technique (Cell Proliferation Biotrak™ ELISA system, GE Health Care) according to the protocol of the manufacturer. DNA synthesis of proliferating T cells was determined by incorporation of radio labelled tritium thymidine and subsequent radio detection.
Data output was based on raw data and calculation of relative proliferation response in relation to PHA-activated T cells in the absence of test compound (100% control). The IC50 value of proliferation suppression was assessed by graphical evaluation.

[4] = system: purified, recombinant DP8 and DP9; experiment: Inhibition of enzymatic activity of DP8/9; type: biochemical; details: highest test item concentration 25 μM; for IC50: read-out: meas. IC50 (DP8/9)
Protocol: as §1, §2, §3, §4

[5] = biological target: T2, cytosolic aminopeptidase (cAAP) purified from Jurkat cells (Homo sapiens, UniProt P55786); experiment: Inhibition of enzymatic activity of cytosolic aminopeptidase (cAAP); type: biochemical; details: highest test item concentration 25 μM
T2 construct: The cytosolic aminopeptidase (cAAP) was purified from Jurkat cells; endogenous in cells; host or cells: Jurkat cells (enzyme purified from them)
T2 sequence (P55786 whole entry): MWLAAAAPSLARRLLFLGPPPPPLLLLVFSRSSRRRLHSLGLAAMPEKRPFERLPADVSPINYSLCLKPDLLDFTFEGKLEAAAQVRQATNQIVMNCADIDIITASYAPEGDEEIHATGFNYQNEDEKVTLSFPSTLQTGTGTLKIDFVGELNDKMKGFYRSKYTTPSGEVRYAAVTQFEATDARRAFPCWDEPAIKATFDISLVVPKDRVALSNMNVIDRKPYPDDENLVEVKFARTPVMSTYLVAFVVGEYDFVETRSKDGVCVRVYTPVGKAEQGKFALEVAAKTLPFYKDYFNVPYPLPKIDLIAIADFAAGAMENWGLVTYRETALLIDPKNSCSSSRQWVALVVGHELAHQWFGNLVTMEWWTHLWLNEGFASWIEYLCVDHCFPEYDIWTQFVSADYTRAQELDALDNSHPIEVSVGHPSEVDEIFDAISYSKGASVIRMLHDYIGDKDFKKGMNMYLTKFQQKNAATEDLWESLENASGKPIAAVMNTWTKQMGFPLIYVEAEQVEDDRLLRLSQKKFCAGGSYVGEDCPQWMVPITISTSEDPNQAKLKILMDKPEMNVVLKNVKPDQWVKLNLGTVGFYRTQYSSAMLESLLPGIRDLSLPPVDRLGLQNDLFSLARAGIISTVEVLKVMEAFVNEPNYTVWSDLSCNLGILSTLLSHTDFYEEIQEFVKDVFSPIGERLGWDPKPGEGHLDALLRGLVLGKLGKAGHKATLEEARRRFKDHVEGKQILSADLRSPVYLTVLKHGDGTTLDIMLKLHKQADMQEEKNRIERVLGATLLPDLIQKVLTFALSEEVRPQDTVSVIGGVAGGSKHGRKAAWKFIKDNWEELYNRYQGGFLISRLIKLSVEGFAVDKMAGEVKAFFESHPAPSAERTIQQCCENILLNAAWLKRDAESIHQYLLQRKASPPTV

[6] = biological target: T3, aminopeptidase N (APN), purified recombinant human enzyme (Homo sapiens, UniProt P15144); experiment: Inhibition of enzymatic activity of aminopeptidase N (fluorogenic substrate hydrolysis); type: biochemical; details: highest test item concentration 25 μM
T3 construct: made in house; host or cells: ECV cells (transfected)
T3 sequence (P15144 whole entry): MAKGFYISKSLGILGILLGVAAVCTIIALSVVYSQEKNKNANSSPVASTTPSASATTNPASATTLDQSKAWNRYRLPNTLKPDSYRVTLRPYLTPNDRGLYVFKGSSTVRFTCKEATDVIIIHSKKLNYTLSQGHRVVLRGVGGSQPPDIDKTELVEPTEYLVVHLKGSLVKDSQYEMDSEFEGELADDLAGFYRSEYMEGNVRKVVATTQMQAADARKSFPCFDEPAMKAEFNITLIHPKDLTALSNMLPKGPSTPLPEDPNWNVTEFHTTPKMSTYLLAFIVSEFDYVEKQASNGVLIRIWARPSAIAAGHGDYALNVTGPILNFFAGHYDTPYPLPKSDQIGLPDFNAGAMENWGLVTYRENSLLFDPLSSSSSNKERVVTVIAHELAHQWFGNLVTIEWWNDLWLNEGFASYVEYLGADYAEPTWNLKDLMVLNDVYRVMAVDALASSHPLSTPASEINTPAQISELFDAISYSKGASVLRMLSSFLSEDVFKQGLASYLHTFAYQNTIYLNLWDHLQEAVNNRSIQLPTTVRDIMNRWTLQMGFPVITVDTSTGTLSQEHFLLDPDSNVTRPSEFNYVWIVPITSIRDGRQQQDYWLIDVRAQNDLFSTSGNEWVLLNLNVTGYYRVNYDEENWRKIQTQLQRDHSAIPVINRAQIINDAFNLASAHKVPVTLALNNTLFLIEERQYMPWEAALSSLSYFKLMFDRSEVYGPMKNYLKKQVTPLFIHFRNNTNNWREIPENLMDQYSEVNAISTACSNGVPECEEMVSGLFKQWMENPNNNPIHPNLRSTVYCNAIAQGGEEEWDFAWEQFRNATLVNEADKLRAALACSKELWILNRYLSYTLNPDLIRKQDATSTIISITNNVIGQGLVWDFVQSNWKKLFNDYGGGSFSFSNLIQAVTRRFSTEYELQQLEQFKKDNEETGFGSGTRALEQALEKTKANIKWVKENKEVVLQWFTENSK
Protocol: The inhibition of the enzymatic activity of aminopeptidase N (APN) was measured by using purified, recombinant human enzyme (purified from transfected ECV cells, final enzyme concentration approx. 1 nM). […] The assay was performed in 0.05M TRIS/HCl puffer pH 7.5, supplemented with 0.05% Triton (v/v), 0.05% BSA (w/v), 2 mM MgCl2.
The aminopeptidase acitivities wer assessed by the hydrolysis of the fluorogenic substrates H-Ala-4-amino-7-methyl coumarine (abbreviation of fluorogenic group AMC; purchased from Bachem) or (Ala-)2-Rhodamine 110 (abbreviation R110). The final substrate concentrations were again 50 and 1 μM, respectively.
as §3
The release of the fluorescent hydrolysis products AMC and R110 was measured as described above for DPIV substrates.

[7] = system: NHEK cells; experiment: Inhibition of DNA synthesis and proliferation of normal human epidermal keratinocytes (NHEK); type: cell-based; details: EGF-stimulated NHEK, BrdU incorporation, read-out: Supp. DNA Synt. NHEK IC50
Protocol: NHEK cells (primary cells from person) were purchased from PromoCell. For these assay the adherent cells were cultured in serum-free Keratinocyte Growth medium 2 supplemented with epidermal growth factor (EGF) and bovine pituitary extract for 48 hours in flat-bottom microtiter plates. EGF stimulates the DNA synthesis and proliferation of these cells. Test items were added in concentrations from 0.1 up to 100 μM.
The DNA synthesis was assessed by incorporation of bromdesoxyuridine (BrdU) and subsequent detection of BrdU by ELISA technique. Based on these raw data the relative proliferation response in relation to cells cultured in the absence of test compound (100% control) was calculated. IC50 values of proliferation suppression were assessed by computer-assisted graphical evaluation.

[8] = PHA-stimulated human T cells, 48 hours

Row | Compound | meas. IC50 (DPIV) [1] | IC50 ([2]; Homo sapiens) [µM] | IC50 ([3]; Homo sapiens, T-cell, 48 h) [µM] | meas. IC50 (DP8/9) [4] | meas. IC50 (cAAP) [5] | meas. IC50 (APN) [6] | IC50 ([7]; Homo sapiens, NHEK, 48 h) [µM] | IC50 ([7]; 48 hours) [µM] | IC50 [2] [µM] | IC50 [3, 8] [µM] | IC50 [4] [µM] | IC50 ([5]; read-out: meas. IC50 (cAAP)) [µM] | IC50 ([6]; read-out: meas. IC50 (APN)) [µM] | IC50 ([1]; read-out: meas. IC50 (DPIV)) [µM]
1 | CC(C)(C)OC(=O)NC(CNC(=O)c1cccc(NC(=O)C(O)C(COCc2ccccc2)NC(=O)OC(C)(C)C)c1)Cc1cc(F)ccc1F (centres unmarked) [Compound C19.015] | no in- hibition | 5.75 | 8 | no in- hibition | no in- hibition | no in- hibition | 15.9 | – | – | – | – | – | – | –
2 | CC(C)(CNC(=O)CC(Cc1cc(F)ccc1F)NC(=O)C(C)(C)C)CNC(=O)C(O)C(COCc1ccccc1)NC(=O)C(C)(C)C (centres unmarked) [Compound C19.016] | no in- hibition | 49.2 | 15.7 | no in- hibition | no in- hibition | no in- hibition | 37.9 | – | – | – | – | – | – | –
3 | CCCC(=O)NC(CC(=O)NCC(C)(C)CNC(=O)C(O)C(COCc1ccccc1)NC(=O)CCC)Cc1cc(F)ccc1F (centres unmarked) [Compound C19.017] | no in- hibition | ≥ 173 | 30.5 | no in- hibition | no in- hibition | no in- hibition | 64.6 | – | – | – | – | – | – | –
4 | COc1ccc(COCC(NC(=O)C(C)(C)C)C(OCc2ccc(OC)cc2)C(=O)NCC(C)(C)CNC(=O)CC(Cc2cc(F)ccc2F)NC(=O)C(C)(C)C)cc1 (centres unmarked) [Compound C19.018] | no in- hibition | 9.1 | 3.3 | no in- hibition | no in- hibition | no in- hibition | 9.9 | – | – | – | – | – | – | –
5 | CC(C)(CNC(=O)CC(Cc1cc(F)ccc1F)NC(=O)OC(C)(C)C)CNC(=O)C(OC(=O)C(C)(C)C)C(COCc1ccccc1)NC(=O)OC(C)(C)C (centres unmarked) [Compound C19.019] | no in- hibition | 70.6 | 122 | no in- hibition | no in- hibition | no in- hibition | ≥ 131 | – | – | – | – | – | – | –
6 | CC(C)(CNC(=O)CC(Cc1cc(F)ccc1F)NC(=O)OC(C)(C)C)CNC(=O)C(O)C(COCc1ccccc1)NC(=O)OC(C)(C)C (centres unmarked) [Compound C19.023] | No in- hibition | 15.9 | 11.5 | no in- hibition | no in- hibition | no in- hibition | – | 41 | – | – | – | – | – | –
7 | CC(C)(CNC(=O)CC(Cc1cc(F)ccc1F)NC(=O)OC(C)(C)C)CNC(=O)C(O)C(COCc1ccccc1)NC(=O)OC(C)(C)C (centres unmarked) [Compound C19.024] | No in- hibition | – | – | no in- hibition | no in- hibition | no in- hibition | – | 21.1 | 13.3 | 11.4 | – | – | – | –
8 | CC(C)(CNC(=O)CC(Cc1cc(F)ccc1F)NC(=O)OC(C)(C)C)CNC(=O)C(O)C(COCc1ccccc1)NC(=O)OC(C)(C)C (centres unmarked) [Compound C19.025] | No in- hibition | – | – | no in- hibition | no in- hibition | no in- hibition | – | 17.3 | 15.4 | 12.3 | – | – | – | –
9 | CC(C)(CNC(=O)CC(Cc1cc(F)ccc1F)NC(=O)OCc1ccccc1)CNC(=O)C(O)C(N)COCc1ccccc1 (centres unmarked) [Compound C19.026] | No in- hibition | 22.7 | 12.2 | – | – | – | 8.9 | – | – | – | 7.3 | 0.5 | 1 | –
10 | CC(C)(CNC(=O)CC(Cc1cc(F)ccc1F)NC(=O)OCc1ccccc1)CNC(=O)C(O)C(COCc1ccccc1)NC(=O)OC(C)(C)C (centres unmarked) [Compound C19.027] | No in- hibition | 8.53 | 5.2 | no in- hibition | no in- hibition | no in- hibition | 42.1 | – | – | – | – | – | – | –
11 | CC(C)(CNC(=O)CC(N)Cc1cc(F)ccc1F)CNC(=O)C(O)C(COCc1ccccc1)NC(=O)OC(C)(C)C (centres unmarked) [Compound C19.028] | – | 49.4 | 9 | – | no in- hibition | no in- hibition | 31.4 | – | – | – | 1.4 | – | – | 0.17
